Reference: patent publication US9295638B2, “Prevention and treatment of cardiovascular diseases using systems and methods for transdermal nitric oxide delivery” (priority 2012, dated 2016)

How the values were obtained:
[1] = Nitric oxide absorption by carriers (weight gain on bubbling NO gas); assay type: physicochemical; details: NO gas bubbled 40 hr, 25 °C
Method: This example illustrates one technique for preparing a composition in accordance with one embodiment of the invention. An accurate amount of a carrier (HNC 167-62) (see below) was introduced into a system. The carrier weight used in these experiments was approximately 250 g and the vessel size was 500 ml. The vessel was equipped with a mechanical stirrer, gas inlet, and gas outlet and was previously purged with argon for about an hour. The temperature of the carrier was kept at about 25-30° C. NO gas regulated at 5 psi (1 psi is about 6,900 Pa) and was then introduced at a controlled rate of about 1 bubble/s with continuous stirring. […] After 6 hours, the weight of the carrier had increased by 0.15%, by 12 hours by 0.25%, and by 24 hours by 0.56%. These increases in weight were believed to be significant considering the relative small molecular weight of NO versus the carrier. […] The carrier also can solidify upon cooling if the carrier is initially a solid at lower temperature.
Each carrier was taken in a 500 mL three necked flask equipped with a mechanical stirrer, gas inlet and a gas outlet. The system was purged with argon for one hour at room temperature (25° C.). Then nitric oxide gas was bubbled into the system. Then, nitric oxide gas was bubbled through carrier for stipulated amount of time. The changes in weight and color were noted. […]

[2] = test system: micro-capillary blood flow to skin; experiment: Laser Doppler capillary blood flow in humans, 10,000 ppm NO in closed chamber (Example 6); assay type: in vivo; details: applied to the skin at 1/10% in alcohol
Text: The formulation used in these studies contained nitric oxide dispersed in a lipid matrix. […] Nitric oxide is a very rapid acting molecule, and these studies used a system that employed laser Doppler with a covered chamber. The formulation was placed into the chamber and then attached to the skin by an adhesive layer on the covering. This provided a stable measuring device as determined by multiple normal evaluations of the capillary blood flow without treatment of nitric oxide.
A known positive control, methyl nicotinate, was applied to the skin at a concentration of 1/10% in alcohol. […] The vascular dynamics are such that when the blood vessels dilate physical parameters follow Bernoulli's law. This states that as one increases the diameter of a tube containing a liquid to flow will increase but the pressure and the speed of the liquid will decrease. The laser Doppler device accurately measured these parameters.
The test product was labeled as 10,000 ppm NO (nitric oxide). The study participants had 100 mg of the test product applied in a closed Hilltop chamber on the forearm. […]
A Moor Instruments DRT4 Laser Doppler Blood Flow Monitor (Devon, England) was used in these studies. The laser Doppler technique measured blood flow in the microcapillaries of the skin that are close to the skin surface and the blood flow in underlying arterioles and venules that help to regulate skin temperature. […]

[3] = test system: capillary circulation of the skin; experiment: Laser Doppler circulation in five human subjects (Example 8); assay type: in vivo; details: positive control formulation containing 0.1% methyl nicotinate
Text: This example illustrates delivery of nitric oxide formulations to five human subjects, using procedures and formulations similar to those discussed in Example 6. Each person served as their own control for the testing. A Moor Instruments Laser Doppler was used to determine circulation. […] The formulations used produce positive, almost immediate results when applied to the skin which, in these studies, was manifested by vasodilatation of the cutaneous vascular system.
For each subject, the following creams were applied: a negative control formulation (containing no NO), 0.010 gram of a 10,000 ppm NO formulation, 0.020 gram of a 10,000 ppm NO formulation, and a positive control formulation containing 0.1% methyl nicotinate. The formulations were prepared using procedures similar to those discussed in Example 1.

Compound	% Wt. gain [1]	laser Doppler response of positive control [2]	vasodilatation [3]
OCCCO [1,3-Propanediol, 1,3-propanediol]	0.09%		
COC(=O)c1cccnc1 [methyl nicotinate]		rapid response typical of the vasodilator	vasodilatation was observed
